Reference: patent US12570662B2, “Substituted pyrrolo[1,2-b]pyridazines as bifunctional degraders of interleukin-1 receptor-associated kinases” (Nurix Therapeutics, Inc., priority 2021, dated 2026)

Molecular target: T1, IRAK4 (Homo sapiens, UniProt Q9NWZ3)
T1 construct: C-terminal HiBiT-tagged Jurkat cells (polyclonal cell line or clone 8D5); endogenous in cells; host or cells: Jurkat cells (polyclonal cell line or clone 8D5), HiBiT-tagged
T1 sequence (Q9NWZ3 1-460): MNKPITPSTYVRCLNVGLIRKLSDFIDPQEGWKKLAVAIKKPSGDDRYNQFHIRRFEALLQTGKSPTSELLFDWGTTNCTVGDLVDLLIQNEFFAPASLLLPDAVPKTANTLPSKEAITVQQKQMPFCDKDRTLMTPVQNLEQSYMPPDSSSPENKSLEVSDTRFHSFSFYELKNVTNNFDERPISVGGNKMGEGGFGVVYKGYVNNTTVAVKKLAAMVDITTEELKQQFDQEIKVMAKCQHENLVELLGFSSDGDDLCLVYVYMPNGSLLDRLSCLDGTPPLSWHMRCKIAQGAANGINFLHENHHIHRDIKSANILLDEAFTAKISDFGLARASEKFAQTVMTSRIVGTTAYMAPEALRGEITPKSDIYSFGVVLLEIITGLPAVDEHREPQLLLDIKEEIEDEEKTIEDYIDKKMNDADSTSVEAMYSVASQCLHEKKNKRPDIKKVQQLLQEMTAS
Assay: IRAK4 Degradation HiBit Assay
Type: cell-based
Conditions: C-terminal HiBiT-tagged Jurkat cells, 4 hrs incubation; for DC50: % IRAK4 remaining, four-parameter fit (IC50 used as DC50); for Dmax: from fit of % IRAK4 remaining, read-out: Dmax
Outline: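 Jurkat cells carrying C-terminal HiBiT-tagged IRAK4 (polyclonal or clone 8D5) exposed to compound, 10 μM–0.1 nM final over 11 points, for 4 h at 32 °C. Remaining IRAK4 measured by lytic HiBiT/LgBiT luminescence relative to DMSO. DC50 and Dmax taken from four-parameter variable-slope fits.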

SMILES	DC50	Dmax
N#Cc1cnn2c(-c3cc(N[C@@H]4CCOC4)c(-c4nnc(N5CC6CCC(C5)N6CC5CCN(c6ccc([C@@H]7CCC(=O)NC7=O)cc6)CC5)s4)cn3)ccc2c1 (single isomer, unassigned) [Example 131]	21 nM	110%
N#CCNc1cc(-c2ccc3cc(C#N)cnn23)ncc1-c1nnc(N2CC3CCC(C2)N3CC2CCN(c3ccc([C@@H]4CCC(=O)NC4=O)cn3)CC2)s1 (single isomer, unassigned) [Example 133]	13 nM	110%
N#Cc1cnn2c(-c3cc(NC4(C#N)CC4)c(-c4nnc(N5CC6CCC(C5)N6CC5CCN(c6ccc([C@@H]7CCC(=O)NC7=O)cn6)CC5)s4)cn3)ccc2c1 (single isomer, unassigned) [Example 134]	20 nM	111%
C[C@H](C#N)Nc1cc(-c2ccc3cc(C#N)cnn23)ncc1-c1nnc(N2CC3CCC(C2)N3CC2CCN(c3ccc([C@@H]4CCC(=O)NC4=O)cn3)CC2)s1 (single isomer, unassigned) [Example 135]	5 nM	108%
N#Cc1cnn2c(-c3cc(Nc4cnoc4)c(-c4nnc(N5CC6CCC(C5)N6CC5CCN(c6ccc([C@@H]7CCC(=O)NC7=O)cn6)CC5)s4)cn3)ccc2c1 (single isomer, unassigned) [Example 136]	25 nM	113%
C[C@H](C#N)Nc1cc(-c2ccc3cc(C#N)cnn23)ncc1-c1nnc(N2CC3CCC(C2)N3CC2CCN(c3ccc([C@H]4CCC(=O)NC4=O)cn3)CC2)s1 (single isomer, unassigned) [Example 142]	12 nM	96%
C[C@@H](C#N)Nc1cc(-c2ccc3cc(C#N)cnn23)ncc1-c1nnc(N2CC3CCC(C2)N3CC2CCN(c3ccc([C@H]4CCC(=O)NC4=O)cn3)CC2)s1 (single isomer, unassigned) [Example 143]	72 nM	99%
C[C@@H](C#N)Nc1cc(-c2ccc3cc(C#N)cnn23)ncc1-c1nnc(N2CC3CCC(C2)N3CC2CCN(c3ccc([C@@H]4CCC(=O)NC4=O)cn3)CC2)s1 (single isomer, unassigned) [Example 145]	22 nM	113%
N#Cc1cnn2c(-c3cc(NC4CCOCC4)c(-c4nnc(N5CCN(CC6CCN(c7ccc(N8CCC(=O)NC8=O)c(F)c7)CC6)CC5)s4)cn3)ccc2c1 [Example 8, 7-(5-{5-[4-({1-[4-(2,4-dioxo-1,3-diazinan-1-yl)-3-fluorophenyl]piperidin-4-yl}methyl)piperazin-1-yl]-1,3,4-thiadiazol-2-yl}-4-[(oxan-4-yl)amino]pyridin-2-yl)pyrrolo[1,2-b]pyridazine-3-carbonitrile]	29 nM	110%
N#Cc1cnn2c(-c3cc(NC4CCOCC4)c(-c4nnc(N5CCN(CC6CCN(c7ccc(N8CCC(=O)NC8=O)cn7)CC6)CC5)s4)cn3)ccc2c1 [Example 28, 7-(5-{5-[4-({1-[5-(2,4-dioxo-1,3-diazinan-1-yl)pyridin-2-yl]piperidin-4-yl}methyl)piperazin-1-yl]-1,3,4-thiadiazol-2-yl}-4-[(oxan-4-yl)amino]pyridin-2-yl)pyrrolo[1,2-b]pyridazine-3-carbonitrile]	15 nM	107%
N#Cc1cnn2c(-c3cc(NC4CCOCC4)c(-c4nnc(N5CCN(CC6CCN(c7ccc(N8CCC(=O)NC8=O)cc7)CC6)CC5)s4)cn3)ccc2c1 [Example 60, 7-(5-{5-[4-({1-[4-(2,4-dioxo-1,3-diazinan-1-yl)phenyl]piperidin-4-yl}methyl)piperazin-1-yl]-1,3,4-thiadiazol-2-yl}-4-[(oxan-4-yl)amino]pyridin-2-yl)pyrrolo[1,2-b]pyridazine-3-carbonitrile]	16 nM	86%
CC(C)Nc1cc(-c2ccc3cc(C#N)cnn23)ncc1-c1nnc(N2CC3CCC(C2)N3CC2CCN(c3ccc(N4CCC(=O)NC4=O)cn3)CC2)s1 [Example 73, 7-(5-{5-[8-({1-[5-(2,4-dioxo-1,3-diazinan-1-yl)pyridin-2-yl]piperidin-4-yl}methyl)-3,8-diazabicyclo[3.2.1]octan-3-yl]-1,3,4-thiadiazol-2-yl}-4-[(propan-2-yl)amino]pyridin-2-yl)pyrrolo[1,2-b]pyridazine-3-carbonitrile]	29 nM	105%

The remaining lines, values ahead:

DC50	Dmax	SMILES
22 nM	112%	N#Cc1cnn2c(-c3cc(N[C@H]4CCOC4)c(-c4nnc(N5CCN(CC6CCN(c7ccc([C@@H]8CCC(=O)NC8=O)cn7)CC6)CC5)s4)cn3)ccc2c1 (single isomer, unassigned) [Example 130]
13 nM	111%	N#CCNc1cc(-c2ccc3cc(C#N)cnn23)ncc1-c1nnc(N2CCN(CC3CCN(c4ccc([C@@H]5CCC(=O)NC5=O)cn4)CC3)CC2)s1 (single isomer, unassigned) [Example 132]
104 nM	88%	N#Cc1cnn2c(-c3cc(N[C@@H]4CCOC4)c(-c4nnc(N5CCN(CC6CCN(c7ccc([C@H]8CCC(=O)NC8=O)cn7)CC6)CC5)s4)cn3)ccc2c1 (single isomer, unassigned) [Example 137]
166 nM	87%	N#Cc1cnn2c(-c3cc(N[C@H]4CCOC4)c(-c4nnc(N5CCN(CC6CCN(c7ccc([C@H]8CCC(=O)NC8=O)cn7)CC6)CC5)s4)cn3)ccc2c1 (single isomer, unassigned) [Example 144]
12 nM	41%	N#Cc1cnn2c(-c3cc(NC4CCOCC4)c(-c4nnc(N5CCN(CC6CCN(C(=O)c7ccc(F)c(N8CCC(=O)NC8=O)c7)CC6)CC5)s4)cn3)ccc2c1 [Example 62, 7-(5-{5-[4-({1-[3-(2,4-dioxo-1,3-diazinan-1-yl)-4-fluorobenzoyl]piperidin-4-yl}methyl)piperazin-1-yl]-1,3,4-thiadiazol-2-yl}-4-[(oxan-4-yl)amino]pyridin-2-yl)pyrrolo[1,2-b]pyridazine-3-carbonitrile]
29 nM	95%	N#Cc1cnn2c(-c3cc(NC4CCOCC4)c(-c4nnc(C56CCC(C(=O)N7CCc8cc(N9CCC(=O)NC9=O)ccc8C7)(CC5)CC6)s4)cn3)ccc2c1 [Example 63, 7-[5-(5-{4-[6-(2,4-dioxo-1,3-diazinan-1-yl)-1,2,3,4-tetrahydroisoquinoline-2-carbonyl]bicyclo[2.2.2]octan-1-yl}-1,3,4-thiadiazol-2-yl)-4-[(oxan-4-yl)amino]pyridin-2-yl]pyrrolo[1,2-b]pyridazine-3-carbonitrile]
43 nM	110%	CC(C)Nc1cc(-c2ccc3cc(C#N)cnn23)ncc1-c1nnc(N2CCN(CC3CCN(c4ccc(N5CCC(=O)NC5=O)cn4)CC3)CC2)s1 [Example 65, 7-(5-{5-[4-({1-[5-(2,4-dioxo-1,3-diazinan-1-yl)pyridin-2-yl]piperidin-4-yl}methyl)piperazin-1-yl]-1,3,4-thiadiazol-2-yl}-4-[(propan-2-yl)amino]pyridin-2-yl)pyrrolo[1,2-b]pyridazine-3-carbonitrile]
6 nM	110%	CCNc1cc(-c2ccc3cc(C#N)cnn23)ncc1-c1nnc(N2CCN(CC3CCN(c4ccc(N5CCC(=O)NC5=O)cn4)CC3)CC2)s1 [Example 71, 7-(5-{5-[4-({1-[5-(2,4-dioxo-1,3-diazinan-1-yl)pyridin-2-yl]piperidin-4-yl}methyl)piperazin-1-yl]-1,3,4-thiadiazol-2-yl}-4-(ethylamino)pyridin-2-yl)pyrrolo[1,2-b]pyridazine-3-carbonitrile]
19 nM	111%	N#Cc1cnn2c(-c3cc(NC4CC4)c(-c4nnc(N5CCN(CC6CCN(c7ccc(N8CCC(=O)NC8=O)cn7)CC6)CC5)s4)cn3)ccc2c1 [Example 78, 7-[4-(cyclopropylamino)-5-{5-[4-({1-[5-(2,4-dioxo-1,3-diazinan-1-yl)pyridin-2-yl]piperidin-4-yl}methyl)piperazin-1-yl]-1,3,4-thiadiazol-2-yl}pyridin-2-yl]pyrrolo[1,2-b]pyridazine-3-carbonitrile]
84 nM	90%	CC1(Nc2cc(-c3ccc4cc(C#N)cnn34)ncc2-c2nnc(N3CCN(CC4CCN(c5ccc(N6CCC(=O)NC6=O)cn5)CC4)CC3)s2)COC1 [Example 80, 7-(5-{5-[4-({1-[5-(2,4-dioxo-1,3-diazinan-1-yl)pyridin-2-yl]piperidin-4-yl}methyl)piperazin-1-yl]-1,3,4-thiadiazol-2-yl}-4-[(3-methyloxetan-3-yl)amino]pyridin-2-yl)pyrrolo[1,2-b]pyridazine-3-carbonitrile]
52 nM	80%	N#Cc1cnn2c(-c3cc(NC4CC4)c(-c4nnc(N5CCN(CC6CCN(c7ccc(N8CCC(=O)NC8=O)cc7)CC6)CC5)s4)cn3)ccc2c1 [Example 83, 7-[4-(cyclopropylamino)-5-{5-[4-({1-[4-(2,4-dioxo-1,3-diazinan-1-yl)phenyl]piperidin-4-yl}methyl)piperazin-1-yl]-1,3,4-thiadiazol-2-yl}pyridin-2-yl]pyrrolo[1,2-b]pyridazine-3-carbonitrile]
